Source: patent US8822446B2, “Pyrrolopyridine inhibitors of kinases” (AbbVie Inc., priority 2010, dated 2014)

What follows are compounds tested against T1, Cdc7 (BEV coexpressed huCDC7/DBF4) (Homo sapiens, UniProt O00311) (assay: Cdc7 enzyme inhibition assay ([33P]-ATP, biotinylated peptide substrate, FlashPlate)). Settings: Ki generated from IC50 assuming ATP-competitive inhibition; 1 μM ATP, apparent ATP Km 0.7 μM; 1 hr reaction.
T1 construct: made in house; host or cells: baculovirus expression vector (BEV) co-expression
T1 sequence (O00311 whole entry): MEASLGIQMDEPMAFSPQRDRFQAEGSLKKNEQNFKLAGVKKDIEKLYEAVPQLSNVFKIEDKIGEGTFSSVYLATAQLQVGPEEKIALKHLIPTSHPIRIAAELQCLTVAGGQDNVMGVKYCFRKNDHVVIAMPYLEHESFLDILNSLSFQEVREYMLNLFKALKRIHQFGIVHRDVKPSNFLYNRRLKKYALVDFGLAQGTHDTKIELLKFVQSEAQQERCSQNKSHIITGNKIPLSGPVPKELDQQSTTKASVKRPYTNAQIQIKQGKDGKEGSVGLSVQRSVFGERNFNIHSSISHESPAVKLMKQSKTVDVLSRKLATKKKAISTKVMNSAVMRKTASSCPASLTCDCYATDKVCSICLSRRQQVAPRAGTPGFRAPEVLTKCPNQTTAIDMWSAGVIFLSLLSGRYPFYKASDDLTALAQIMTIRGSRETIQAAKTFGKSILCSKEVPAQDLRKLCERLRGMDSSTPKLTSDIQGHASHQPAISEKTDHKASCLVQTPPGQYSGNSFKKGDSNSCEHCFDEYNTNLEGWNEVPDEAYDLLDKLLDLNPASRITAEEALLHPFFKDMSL
T1 sequence (Q9UBU7 whole entry partner): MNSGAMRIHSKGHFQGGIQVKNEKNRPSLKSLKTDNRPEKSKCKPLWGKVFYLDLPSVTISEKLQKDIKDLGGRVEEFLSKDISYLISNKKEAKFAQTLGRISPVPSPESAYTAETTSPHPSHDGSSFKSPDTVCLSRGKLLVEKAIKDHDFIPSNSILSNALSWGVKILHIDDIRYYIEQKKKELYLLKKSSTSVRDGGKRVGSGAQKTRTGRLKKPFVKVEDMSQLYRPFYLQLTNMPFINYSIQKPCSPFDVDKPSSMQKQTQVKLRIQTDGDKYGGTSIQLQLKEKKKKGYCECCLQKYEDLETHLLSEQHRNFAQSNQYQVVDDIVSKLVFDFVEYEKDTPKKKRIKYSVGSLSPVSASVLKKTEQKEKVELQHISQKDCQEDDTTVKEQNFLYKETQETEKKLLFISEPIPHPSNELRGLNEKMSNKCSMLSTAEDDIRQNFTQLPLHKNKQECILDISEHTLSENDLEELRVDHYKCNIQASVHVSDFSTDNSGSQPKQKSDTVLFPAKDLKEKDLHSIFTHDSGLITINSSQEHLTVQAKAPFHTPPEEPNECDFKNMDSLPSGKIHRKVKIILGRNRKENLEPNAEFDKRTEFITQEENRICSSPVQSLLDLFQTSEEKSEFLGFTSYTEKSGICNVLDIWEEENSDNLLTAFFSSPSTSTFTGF
Type: biochemical
Procedure: This example describes the assays that may be used to identify compounds having kinase activity.
Cdc7 (BEV coexpressed huCDC7/DBF4) is prepared internally. Cdc7 assays are conducted as follows with final concentrations as listed. In 384-well v-bottom polypropylene plates, 6 μL compound (2% DMSO), is mixed with 6 μL of Cdc7 (2 ug/mL), and Jerini peptide substrate A-A11 (biotin-C6linker-[…]) (2 μM), followed by immediate initiation with 6 μL […] (1 μM, 20 mCi/μmol) using a reaction buffer comprising 25 mM HEPES, pH 7.5, 1 mM DTT, 10 mM MgCl2, 100 μM, Na3VO4, 0.075 mg/ml Triton X-100. Reactions are quenched after 1 hr by the addition of 90 μL stop buffer (50 mM EDTA, 2M NaCl).
Table 1 depicts enzyme inhibition data (Ki) for exemplary compounds.

Row | Ki [nM] | Structure (SMILES)
1 | < 10 | O=c1cc(-c2c[nH]c3ncccc23)cc(Nc2ccccc2)[nH]1 [Example 55, 6-anilino-4-(1H-pyrrolo[2,3-b]pyridin-3-yl)pyridin-2(1H)-one]
2 | < 10 | O=c1cc(-c2c[nH]c3ncccc23)nc(NCCCn2ccnc2)[nH]1 [Example 30, 2-{[3-(1H-imidazol-1-yl)propyl]amino}-6-(1H-pyrrolo[2,3-b]pyridin-3-yl)pyrimidin-4(3H)-one]
3 | < 10 | O=C(N[C@H]1CC[C@H](Nc2cc(-c3c[nH]c4ncccc34)cc(=O)[nH]2)CC1)C1CC1 [Example 58, N-(trans-4-{[6-oxo-4-(1H-pyrrolo[2,3-b]pyridin-3-yl)-1,6-dihydropyridin-2-yl]amino}cyclohexyl)cyclopropanecarboxamide]
4 | < 10 | O=c1cc(-c2c[nH]c3ncccc23)cc(-c2ccc3ccccc3c2)[nH]1 [Example 41, 6-(2-naphthyl)-4-(1H-pyrrolo[2,3-b]pyridin-3-yl)pyridin-2(1H)-one]
5 | < 10 | O=c1cc(-c2c[nH]c3ncccc23)cc(N[C@H]2CC[C@H](NS(=O)(=O)C3CC3)CC2)[nH]1 [Example 57, N-(trans-4-{[6-oxo-4-(1H-pyrrolo[2,3-b]pyridin-3-yl)-1,6-dihydropyridin-2-yl]amino}cyclohexyl)cyclopropanesulfonamide]
6 | < 10 | Cc1cccc(-c2nc(-c3c[nH]c4ncccc34)cc(=O)[nH]2)c1C [Example 62, 2-(2,3-dimethylphenyl)-6-(1H-pyrrolo[2,3-b]pyridin-3-yl)pyrimidin-4(3H)-one]
7 | < 10 | NCCCOc1cccc(CNc2nc(-c3c[nH]c4ncccc34)cc(=O)[nH]2)c1 [Example 63, 2-{[3-(3-aminopropoxy)benzyl]amino}-6-(1H-pyrrolo[2,3-b]pyridin-3-yl)pyrimidin-4(3H)-one]
8 | < 10 | COc1ncccc1-c1cc(-c2c[nH]c3ncccc23)cc(=O)[nH]1 [Example 47, 2′-methoxy-4-(1H-pyrrolo[2,3-b]pyridin-3-yl)-2,3′-bipyridin-6(1H)-one]
9 | < 10 | O=C(N[C@H]1CC[C@H](Nc2cc(-c3c[nH]c4ncccc34)cc(=O)[nH]2)CC1)C1CN(Cc2ccc(F)cc2)C1 [Example 59, 1-(4-fluorobenzyl)-N-(trans-4-{[6-oxo-4-(1H-pyrrolo[2,3-b]pyridin-3-yl)-1,6-dihydropyridin-2-yl]amino}cyclohexyl)azetidine-3-carboxamide]
10 | < 10 | O=c1cc(-c2c[nH]c3ncccc23)cc(-c2cccc(N3CCOCC3)c2)[nH]1 [Example 50, 6-[3-(morpholin-4-yl)phenyl]-4-(1H-pyrrolo[2,3-b]pyridin-3-yl)pyridin-2(1H)-one]
11 | < 10 | O=c1cc(-c2c[nH]c3ncccc23)cc(-c2cccc(Cl)c2)[nH]1 [Example 42, 6-(3-chlorophenyl)-4-(1H-pyrrolo[2,3-b]pyridin-3-yl)pyridin-2(1H)-one]
12 | < 10 | CS(=O)(=O)c1cccc(-c2cc(-c3c[nH]c4ncccc34)cc(=O)[nH]2)c1 [Example 51, 6-[3-(methylsulfonyl)phenyl]-4-(1H-pyrrolo[2,3-b]pyridin-3-yl)pyridin-2(1H)-one]
13 | < 10 | Cc1ccccc1-c1cc(-c2c[nH]c3ncccc23)cc(=O)[nH]1 [Example 38, 6-(2-methylphenyl)-4-(1H-pyrrolo[2,3-b]pyridin-3-yl)pyridin-2(1H)-one]
14 | < 10 | O=c1cc(-c2c[nH]c3ncccc23)cc(-c2ccsc2)[nH]1 [Example 40, 4-(1H-pyrrolo[2,3-b]pyridin-3-yl)-6-(3-thienyl)pyridin-2(1H)-one]
15 | < 10 | O=c1cc(-c2c[nH]c3ncccc23)cc(-c2cn[nH]c2)[nH]1 [Example 52, 6-(1H-pyrazol-4-yl)-4-(1H-pyrrolo[2,3-b]pyridin-3-yl)pyridin-2(1H)-one]
16 | < 10 | N[C@H]1CC[C@H](Nc2cc(-c3c[nH]c4ncccc34)cc(=O)[nH]2)CC1 [Example 56, 6-[(trans-4-aminocyclohexyl)amino]-4-(1H-pyrrolo[2,3-b]pyridin-3-yl)pyridin-2(1H)-one]
17 | < 10 | O=c1cc(-c2c[nH]c3ncccc23)cc(-c2ccccc2)[nH]1 [Example 34, 6-phenyl-4-(1H-pyrrolo[2,3-b]pyridin-3-yl)pyridin-2(1H)-one]
18 | < 10 | Cc1ccccc1-c1nc(-c2c[nH]c3ncccc23)cc(=O)[nH]1 [Example 33, 2-(2-methylphenyl)-6-(1H-pyrrolo[2,3-b]pyridin-3-yl)pyrimidin-4(3H)-one]
19 | < 10 | NCCOCCOCCNc1nc(-c2c[nH]c3ncccc23)cc(=O)[nH]1 [Example 31, 2-({2-[2-(2-aminoethoxy)ethoxy]ethyl}amino)-6-(1H-pyrrolo[2,3-b]pyridin-3-yl)pyrimidin-4(3H)-one]
20 | < 10 | COc1cccc(-c2cc(-c3c[nH]c4ncccc34)cc(=O)[nH]2)c1F [Example 44, 6-(2-fluoro-3-methoxyphenyl)-4-(1H-pyrrolo[2,3-b]pyridin-3-yl)pyridin-2(1H)-one]
21 | < 10 | Cc1ncccc1-c1cc(-c2c[nH]c3ncccc23)cc(=O)[nH]1 [Example 53, 2′-methyl-4-(1H-pyrrolo[2,3-b]pyridin-3-yl)-2,3′-bipyridin-6(1H)-one]

Further lines, the compound ahead of its results:

Row | Structure (SMILES) | Ki [nM]
22 | O=c1cc(-c2c[nH]c3ncccc23)nc(Nc2ccccc2)[nH]1 [Example 3, 2-anilino-6-(1H-pyrrolo[2,3-b]pyridin-3-yl)pyrimidin-4(3H)-one] | < 10
23 | COC1CCN(c2nc(-c3c[nH]c4ncccc34)cc(=O)[nH]2)CC1 [Example 27, 2-(4-methoxypiperidin-1-yl)-6-(1H-pyrrolo[2,3-b]pyridin-3-yl)pyrimidin-4(3H)-one] | < 10
24 | O=c1cc(-c2c[nH]c3ncccc23)nc(NCCO)[nH]1 [Example 19, 2-[(2-hydroxyethyl)amino]-6-(1H-pyrrolo[2,3-b]pyridin-3-yl)pyrimidin-4(3H)-one] | < 10
25 | O=c1cc(-c2c[nH]c3ncccc23)nc(NC2CCCC2)[nH]1 [Example 26, 2-(cyclopentylamino)-6-(1H-pyrrolo[2,3-b]pyridin-3-yl)pyrimidin-4(3H)-one] | < 10
26 | C[C@@H](Nc1nc(-c2c[nH]c3ncccc23)cc(=O)[nH]1)c1ccccc1 [Example 12, 2-{[(1R)-1-phenylethyl]amino}-6-(1H-pyrrolo[2,3-b]pyridin-3-yl)pyrimidin-4(3H)-one] | < 10
27 | O=c1cc(-c2c[nH]c3ncccc23)nc(N2CCSCC2)[nH]1 [Example 15, 6-(1H-pyrrolo[2,3-b]pyridin-3-yl)-2-(thiomorpholin-4-yl)pyrimidin-4(3H)-one] | < 10
28 | O=c1cc(-c2c[nH]c3ncccc23)nc(NCc2cc(F)cc(F)c2)[nH]1 [Example 5, 2-[(3,5-difluorobenzyl)amino]-6-(1H-pyrrolo[2,3-b]pyridin-3-yl)pyrimidin-4(3H)-one] | < 10
29 | O=c1cc(-c2c[nH]c3ncccc23)nc(N2CCOCC2)[nH]1 [Example 24, 2-(morpholin-4-yl)-6-(1H-pyrrolo[2,3-b]pyridin-3-yl)pyrimidin-4(3H)-one] | < 10
30 | O=c1cc(-c2c[nH]c3ncccc23)nc(NC2CCCCC2)[nH]1 [Example 1, 2-(cyclohexylamino)-6-(1H-pyrrolo[2,3-b]pyridin-3-yl)pyrimidin-4(3H)-one] | < 10
31 | C[C@H](Nc1nc(-c2c[nH]c3ncccc23)cc(=O)[nH]1)c1ccccc1 [Example 8, 2-{[(1S)-1-phenylethyl]amino}-6-(1H-pyrrolo[2,3-b]pyridin-3-yl)pyrimidin-4(3H)-one] | < 10
32 | O=c1cc(-c2c[nH]c3ncccc23)nc(NC2CCOCC2)[nH]1 [Example 9, 6-(1H-pyrrolo[2,3-b]pyridin-3-yl)-2-(tetrahydro-2H-pyran-4-ylamino)pyrimidin-4(3H)-one] | < 10
33 | O=c1cc(-c2c[nH]c3ncccc23)nc(NCc2ccccc2)[nH]1 [Example 2, 2-(benzylamino)-6-(1H-pyrrolo[2,3-b]pyridin-3-yl)pyrimidin-4(3H)-one] | < 10
34 | COCCN(CCOC)c1nc(-c2c[nH]c3ncccc23)cc(=O)[nH]1 [Example 17, 2-[bis(2-methoxyethyl)amino]-6-(1H-pyrrolo[2,3-b]pyridin-3-yl)pyrimidin-4(3H)-one] | < 10
35 | CNCCNc1nc(-c2c[nH]c3ncccc23)cc(=O)[nH]1 [Example 16, 2-{[2-(methylamino)ethyl]amino}-6-(1H-pyrrolo[2,3-b]pyridin-3-yl)pyrimidin-4(3H)-one] | < 10
36 | CN(c1nc(-c2c[nH]c3ncccc23)cc(=O)[nH]1)C1CCCCC1 [Example 11, 2-[cyclohexyl(methyl)amino]-6-(1H-pyrrolo[2,3-b]pyridin-3-yl)pyrimidin-4(3H)-one] | < 10
37 | O=c1cc(-c2c[nH]c3ncccc23)nc(NCc2cccc(O)c2)[nH]1 [Example 23, 2-[(3-hydroxybenzyl)amino]-6-(1H-pyrrolo[2,3-b]pyridin-3-yl)pyrimidin-4(3H)-one] | < 10
38 | NC1CCCCC1Nc1nc(-c2c[nH]c3ncccc23)cc(=O)[nH]1 (stereo not shown) [Example 13, 2-[(2-aminocyclohexyl)amino]-6-(1H-pyrrolo[2,3-b]pyridin-3-yl)pyrimidin-4(3H)-one] | < 10
39 | O=c1cc(-c2c[nH]c3ncccc23)nc(N2CCC(CO)CC2)[nH]1 [Example 21, 2-[4-(hydroxymethyl)piperidin-1-yl]-6-(1H-pyrrolo[2,3-b]pyridin-3-yl)pyrimidin-4(3H)-one] | < 10
40 | CN1CCC(Nc2nc(-c3c[nH]c4ncccc34)cc(=O)[nH]2)CC1 [Example 29, 2-[(1-methylpiperidin-4-yl)amino]-6-(1H-pyrrolo[2,3-b]pyridin-3-yl)pyrimidin-4(3H)-one] | < 10
